Test results taken from article PMC9667534, “Insertion of Nanoluc into the Extracellular Loops as a Complementary Method To Establish BRET-Based Binding Assays for GPCRs” (ACS Pharmacology & Translational Science, 2022).
“And” between values parts separate entries of the source, which are not always exact repeats. Equal entries are not always repeated. Where two headings read alike, the source gives them in different places.

Tests used:
Y1R [1] = biological target: Y1R; set-up: method as in ref 24,25,27,30-38 (per cell); settings: different expression systems, sodium-containing or sodium-free buffers, ref 24,25,27,30-38 (per cell); cited from earlier work
Nluc-Y1R(Y192) [2] = biological target: T1, Nluc-Y1R(Y192) (Homo sapiens, UniProt P25929); assay: BRET competition binding with fluorescent ligand 1; settings: competition with 1 (c = 0.5 nM, Kd = 0.24 nM), intact HEK293T cells, mean ± SEM
T1 sequence (P25929 1-384): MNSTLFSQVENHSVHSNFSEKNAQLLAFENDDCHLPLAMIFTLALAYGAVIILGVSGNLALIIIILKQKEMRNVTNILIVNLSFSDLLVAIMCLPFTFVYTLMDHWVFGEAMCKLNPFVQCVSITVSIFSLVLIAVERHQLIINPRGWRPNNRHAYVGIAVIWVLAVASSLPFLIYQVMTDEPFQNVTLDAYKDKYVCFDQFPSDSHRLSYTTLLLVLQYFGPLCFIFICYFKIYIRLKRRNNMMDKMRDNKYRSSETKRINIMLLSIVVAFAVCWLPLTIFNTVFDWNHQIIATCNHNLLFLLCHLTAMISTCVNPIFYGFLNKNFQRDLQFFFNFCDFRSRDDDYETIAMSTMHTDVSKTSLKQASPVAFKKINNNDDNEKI
Description: (§1) BRET binding experiments were essentially performed as described[18] with the following minor modifications: 1 day prior to the experiment, HEK293T cells stably expressing the respective Nluc-receptor fusion construct were detached from the cell culture dish by trypsinization, centrifuged (500g, 5 min), and resuspended in L-15 with 5% FCS and 10 mM HEPES (pH 7.4). […] Subsequently, 10 μL of assay buffer containing the investigated fluorescent ligand was added to all wells. After an incubation period of 60 min at 27 °C, 10 μL of the Nluc substrate furimazine (prediluted 1:1000 before use) was added and after an equilibration time of 5 min inside the plate reader (prewarmed to 27 °C), the measurement was started.
(§2) A positive control containing only fluorescent ligand and no competitor (100% value), as well as a negative control (buffer, 0% value), was included in every experiment.
(§3) For competition binding experiments, the data were normalized to the BRET ratio obtained for the negative control (buffer, 0% value) and the BRET ratio obtained for wells containing fluorescent ligand, but no competitor (100% value). […] The obtained pIC50 values were subsequently transformed into pKi values by means of the Cheng–Prusoff equation (logarithmic form),[80] for which means and SEMs were calculated.

Nluc-Y1R(Q291) [3] = biological target: T2, Nluc-Y1R(Q291) (Homo sapiens, UniProt P25929); assay: BRET competition binding with fluorescent ligand 1; settings: competition with 1 (c = 0.5 nM, Kd = 0.29 nM), HEK293T cells; mean ± SEM
T2 sequence (P25929 1-384): T1 sequence (P25929 1-384)
Description: as §1, §2, §3

M1R = settings: cited from earlier work
Nluc-M1R(G176) [4] = biological target: T3, Nluc-M1R(G176) (Homo sapiens, UniProt P11229); assay: biochemical; assay type: binding
T3 sequence (P11229 1-460): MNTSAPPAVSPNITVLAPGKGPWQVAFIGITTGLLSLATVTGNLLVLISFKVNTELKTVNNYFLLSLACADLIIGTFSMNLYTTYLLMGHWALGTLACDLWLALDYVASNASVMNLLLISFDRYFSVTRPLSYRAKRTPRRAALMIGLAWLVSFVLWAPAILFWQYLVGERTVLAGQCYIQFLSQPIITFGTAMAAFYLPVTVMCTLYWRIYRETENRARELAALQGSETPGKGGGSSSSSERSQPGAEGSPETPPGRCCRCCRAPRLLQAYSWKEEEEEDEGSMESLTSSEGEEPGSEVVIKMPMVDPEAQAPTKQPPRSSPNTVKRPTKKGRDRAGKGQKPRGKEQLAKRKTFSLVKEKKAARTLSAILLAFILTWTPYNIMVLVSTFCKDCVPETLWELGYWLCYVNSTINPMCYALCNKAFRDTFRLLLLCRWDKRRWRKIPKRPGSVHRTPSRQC
Description: BRET binding experiments were essentially performed as described[18] with the following minor modifications: 1 day prior to the experiment, HEK293T cells stably expressing the respective Nluc-receptor fusion construct were detached from the cell culture dish by trypsinization, centrifuged (500g, 5 min), and resuspended in L-15 with 5% FCS and 10 mM HEPES (pH 7.4). […] Subsequently, 10 μL of assay buffer containing the investigated fluorescent ligand was added to all wells.
as §2, §3

Nluc-AT1R(S186) = biological target: T4, Nluc-AT1R(S186) (Homo sapiens, UniProt P30556); assay: BRET competition binding with fluorescent ligand 3
T4 sequence (P30556 1-359): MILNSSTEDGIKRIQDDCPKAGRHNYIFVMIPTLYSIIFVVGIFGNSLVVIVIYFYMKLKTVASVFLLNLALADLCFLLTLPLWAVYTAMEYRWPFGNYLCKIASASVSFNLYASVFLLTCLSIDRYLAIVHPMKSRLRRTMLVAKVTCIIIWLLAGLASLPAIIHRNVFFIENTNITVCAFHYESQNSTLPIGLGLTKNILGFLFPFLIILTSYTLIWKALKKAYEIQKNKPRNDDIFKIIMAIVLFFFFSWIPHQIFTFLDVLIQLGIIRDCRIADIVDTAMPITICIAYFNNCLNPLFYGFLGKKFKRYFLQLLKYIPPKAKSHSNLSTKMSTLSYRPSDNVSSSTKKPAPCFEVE
Description: as §1
A positive control containing only fluorescent ligand and no competitor (100% value), as well as a negative control (buffer, 0% value), was included in every experiment. […]
as §3

AT1R = biological target: AT1R; set-up: method as in ref 41,44,46-49 (per cell); settings: different expression systems, ref 41,44,46-49 (per cell); cited from earlier work
Nluc-Y1R(Δ1–31) = biological target: T5, Nluc-Y1R(Δ1–31) (Homo sapiens, UniProt P25929); assay: BRET saturation binding at intact HEK293T cells; settings: mean ± SEM, read-out: pKd (BRET) (converted)
T5 construct: fused Nluc to Asp32 of the Y1R via a short linker; expressed in transfected cells; host or cells: HEK293T, stably transfected (pcDNA3.1)
T5 sequence (P25929 32-384): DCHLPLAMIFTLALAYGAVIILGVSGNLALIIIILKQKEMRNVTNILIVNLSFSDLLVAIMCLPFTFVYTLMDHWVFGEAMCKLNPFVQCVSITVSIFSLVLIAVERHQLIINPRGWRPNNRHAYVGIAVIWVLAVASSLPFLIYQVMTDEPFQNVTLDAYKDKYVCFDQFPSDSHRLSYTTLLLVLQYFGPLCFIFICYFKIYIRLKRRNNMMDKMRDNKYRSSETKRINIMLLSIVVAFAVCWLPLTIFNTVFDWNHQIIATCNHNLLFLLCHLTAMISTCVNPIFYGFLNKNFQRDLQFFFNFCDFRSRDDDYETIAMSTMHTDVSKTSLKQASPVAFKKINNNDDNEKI
Description: as §1
(§4) For BRET experiments, the “raw BRET ratio” was calculated by dividing the emission detected through the 610 LP filter (acceptor) by the emission detected through the 460 BP filter (donor). A baseline correction was performed for all values by subtracting the BRET ratio of a buffer control, yielding “corrected BRET ratios”. […] The obtained Kd values were transformed into pKd values, for which means and SEMs were calculated.

Nluc-Y1R(Nterm) = biological target: T6, Nluc-Y1R(Nterm) (Homo sapiens, UniProt P25929); assay: BRET saturation binding at intact HEK293T cells
T6 construct: expressed in transfected cells; host or cells: HEK293T, stably transfected (pcDNA3.1)
T6 sequence (P25929 1-384): T1 sequence (P25929 1-384)
Description: as §1, §4

Nluc-Y1R(Y192) [5] = biological target: T1, Nluc-Y1R(Y192); assay: BRET saturation binding at intact HEK293T cells
Description: as §1, §4

Nluc-Y1R(Q291) [6] = biological target: T2, Nluc-Y1R(Q291); assay: BRET saturation binding at intact HEK293T cells
Description: as §1, §4

wild-type Y1R = biological target: wild-type Y1R; set-up: method as in PMID 35263541; settings: cited from earlier work
Nluc-Y1R(Y192) [7] = biological target: T1, Nluc-Y1R(Y192); assay: Kinetic BRET binding (association and dissociation); settings: 1 c = 0.5 nM
Nluc-M1R(G176) [8] = biological target: T3, Nluc-M1R(G176); assay: as above
Nluc-M1R(Nterm) = biological target: T7, Nluc-M1R(Nterm) (Homo sapiens, UniProt P11229); assay: BRET saturation binding at intact HEK293T cells; settings: mean ± SEM, read-out: pKd (BRET) (converted)
T7 construct: expressed in transfected cells; host or cells: HEK293T, stably transfected (pcDNA3.1)
T7 sequence (P11229 1-460): T3 sequence (P11229 1-460)
Description: as §1, §4

Nluc-M1R(G176) [9] = biological target: T3, Nluc-M1R(G176); assay: BRET saturation binding at intact HEK293T cells
Description: as §1, §4

NTS1R = biological target: NTS1R; set-up: method as in ref 42,44,50-53 (per cell); settings: different expression systems, ref 42,44,50-53 (per cell); cited from earlier work
Nluc-NTS1R(T227) = assay: BRET competition binding with fluorescent ligand 2; set-up: species or system human; settings: competition with 2 (c = 5 nM, Kd = 4.82 nM), intact HEK293T cells, mean ± SEM
Sequence of Nluc-NTS1R(T227) (P30989 1-227 limits assumed): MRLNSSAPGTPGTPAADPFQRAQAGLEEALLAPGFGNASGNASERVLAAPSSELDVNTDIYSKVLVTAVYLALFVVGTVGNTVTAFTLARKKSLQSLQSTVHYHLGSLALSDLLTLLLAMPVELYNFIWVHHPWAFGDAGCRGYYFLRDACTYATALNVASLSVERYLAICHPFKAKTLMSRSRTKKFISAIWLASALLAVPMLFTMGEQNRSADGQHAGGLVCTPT
Sequence of Nluc-NTS1R(T227) (P30989 228-418 limits assumed): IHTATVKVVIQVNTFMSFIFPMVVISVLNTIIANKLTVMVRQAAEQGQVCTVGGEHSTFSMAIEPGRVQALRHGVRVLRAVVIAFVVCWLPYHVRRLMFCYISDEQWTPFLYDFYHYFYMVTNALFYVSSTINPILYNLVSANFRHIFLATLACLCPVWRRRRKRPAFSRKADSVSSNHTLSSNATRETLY
Description: as §1, §2, §3

Nluc-NTS1R(T227) (human) [10] = biological target: Nluc-NTS1R(T227) (human) (UniProt P30989); assay: FRET or BRET; kinetic BRET binding (association then dissociation) at intact HEK293T cells, 27 °C; fluorescent ligand 10 nM; dissociation started with SR142948 or candesartan (2.5 μM)
Sequence of Nluc-NTS1R(T227) (human) (P30989 whole entry): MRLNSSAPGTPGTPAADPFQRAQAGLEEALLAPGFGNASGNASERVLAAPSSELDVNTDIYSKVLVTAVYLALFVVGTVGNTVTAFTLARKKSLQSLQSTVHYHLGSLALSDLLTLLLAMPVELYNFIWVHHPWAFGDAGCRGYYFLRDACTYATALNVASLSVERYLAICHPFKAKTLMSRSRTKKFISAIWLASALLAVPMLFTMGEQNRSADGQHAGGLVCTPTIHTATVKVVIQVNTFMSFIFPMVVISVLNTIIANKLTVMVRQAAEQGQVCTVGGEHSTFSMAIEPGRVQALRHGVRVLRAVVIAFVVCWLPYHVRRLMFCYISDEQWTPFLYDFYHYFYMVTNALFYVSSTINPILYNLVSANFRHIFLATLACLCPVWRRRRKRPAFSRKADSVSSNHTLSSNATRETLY

Nluc-NTS1R(T227) (human) [11] = biological target: Nluc-NTS1R(T227) (human) (UniProt P30989); assay: FRET or BRET; BRET saturation binding of the fluorescent ligand at intact HEK293T cells stably expressing the Nluc-receptor construct; 60 min, 27 °C; L-15, 10 mM HEPES pH 7.4, 2% BSA; nonspecific binding with 100-fold excess of SR142948 or candesartan
Y1R [12] = biological target: Y1R; set-up: method as in PMID 35263541; settings: 1 as the fluorescent probe; cited from earlier work
[13] = intact HEK293T cells, mean ± SEM, read-out: pKd (BRET) (converted)
[14] = value used for Cheng–Prusoff, read-out: Kd
[15] = intact HEK293T cells, mean ± SEM

## NC(=O)NCc1ccc(CNC(=O)[C@@H](CCCN=C(N)N)NC(=O)C(c2ccccc2)c2ccccc2)cc1 [BIBO3304]
Y1R [1]
  reference values (literature): 8.76–9.60[27],[30],[31]

## NC(N)=NCCC[C@@H](NC(=O)C(c1ccccc1)c1ccccc1)C(=O)NCc1ccc(O)cc1 [BIBP3226]
Y1R [1]
  reference values (literature): 8.14–9.00[25],[27],[30],[33],[34]

## CC(C)c1ccccc1S(=O)(=O)c1cc(N)c2ncccc2c1[N+](=O)[O-] [PD160170]
Nluc-Y1R(Y192) [2]
  pKi (BRET): 7.45 ± 0.05
Y1R [1]
  reference values (literature): 7.30 and 7.32

## CCC(=O)NCCNC(=O)N=C(N)NCCC[C@@H](NC(=O)C(c1ccccc1)c1ccccc1)C(=O)NCc1ccc(O)cc1 [UR-MK299]
Nluc-Y1R(Q291) [3]
  pKi (BRET, Nluc-Y1R(Q291)): 10.06 ± 0.07
Nluc-Y1R(Y192) [2]
  pKi (BRET): 10.20 ± 0.06
Y1R [1]
  reference values (literature): 10.11[25]

## C=CC[N@@+]12CC[C@@]34c5ccccc5N5/C=C6/[C@H]7C[C@H]8[C@@]9(CC[N@@+]8(CC=C)C/C7=C/CO)c7ccccc7N(/C=C(/[C@@H](C[C@@H]31)/C(=C\CO)C2)[C@H]54)[C@@H]69 [alcuronium, Alcuronium]
M1R
  reference values (literature): 5.01,[57] 5.25[55]
Nluc-M1R(G176) [4]; Nluc-M1R(G176)
  displacement of fluorescent ligand 4: displace the dualsteric ligand 4 completely

## CCOc1nc2cccc(C(=O)O)c2n1Cc1ccc(-c2ccccc2-c2nnn[nH]2)cc1 [candesartan, Candesartan]
Nluc-AT1R(S186)
  Ki: 1.51 nM
AT1R
  reference values (literature): 8.46–10.28[41],[44],[46]−[48]

## CCC(=O)NCCNC(=O)N=C(N)NCCC[C@@H](NC(=O)[C@@H](c1ccccc1)c1cccc(OCCCC[n+]2c(C)cc(/C=C/C=C/c3ccc(N(C)C)cc3)cc2C)c1)C(=O)NCc1ccc(O)cc1 [compound 1]
Nluc-Y1R(Δ1–31)
  Kd: 2.88 nM
Nluc-Y1R(Nterm)
  specific signal in BRET saturation binding: no specific signal was detectable
Nluc-Y1R(Y192) [5]; [13]
  Kd: 0.24 nM
Nluc-Y1R(Y192) [5]; [14]
  Kd: 0.24 nM
Nluc-Y1R(Q291) [6]; [13]
  Kd: 0.288 nM
Nluc-Y1R(Q291) [6]; [14]
  Kd: 0.29 nM
wild-type Y1R
  pKi (radioligand competition binding): 9.95
Nluc-Y1R(Y192) [7]
  time of association: ≤ 60 min
Nluc-Y1R(Y192) [7]; [15]
  koff: 6.67e-05 s⁻¹
  kon: 2.38e+06 M⁻¹ s⁻¹
Nluc-Y1R(Y192) [7]; after 4 h, dissociation by BIBO3304
  fraction still bound after initiation of dissociation: ≈ 40%
Nluc-Y1R(Y192) [7]; kinetically derived, mean ± SEM, read-out: pKd kinetic (converted)
  Kd: 0.024 nM

## Cc1cc(/C=C/C=C/c2ccc(N(C)C)cc2)cc(C)[n+]1CCNC(=O)CCc1cn(CCCCC2CCN(CC(=O)N3c4ccccc4NC(=O)c4ccccc43)CC2)cn1 [compound 4]
Nluc-M1R(G176) [8]
  koff: 0.00297 s⁻¹
  kon: 367000 M⁻¹ s⁻¹
Nluc-M1R(G176) [8]; kinetically derived, Nluc-M1R(G176), 4 c = 5 nM, mean ± SEM, read-out: pKd kinetic (converted)
  Kd: 9.12 nM
Nluc-M1R(Nterm)
  Kd: 6.03 nM
Nluc-M1R(G176) [9]; [13]
  Kd: 2.24 nM
Nluc-M1R(G176) [9]; [14]
  Kd: 2.26 nM

## C[N+](C)(C)CC#CCOC1=NOCC1 [iperoxo]
M1R
  reference values (literature): 6.46[56]
Nluc-M1R(G176) [4]
  pKi (BRET): 7.00 ± 0.07

## CCCCc1nc(Cl)c(CO)n1Cc1ccc(-c2ccccc2-c2nn[nH]n2)cc1 [losartan]
AT1R
  reference values (literature): 7.23–8.00[41],[44],[46],[48],[49]

## O=C1CCCN1CC#CCN1CCCC1 [oxotremorine]
M1R
  reference values (literature): 5.48–5.86[55],[57],[59]
Nluc-M1R(G176) [4]
  Ki: 1000 nM

## BMS193885
Nluc-Y1R(Y192) [2]
  pKi (BRET): 8.23 ± 0.01
Y1R [1]
  reference values (literature): 7.66–8.48[27],[35],[36]

## Neurotensin(8–13) [NT(8–13)]
NTS1R
  reference values (literature): 8.27–9.85[42],[44],[50]−[52]

## SR142948
Nluc-NTS1R(T227)
  pKi (BRET): 7.93 ± 0.12
NTS1R
  reference values (literature): 8.05–8.99[42],[44],[50],[53]

## UR-AP178 (peptide)
Nluc-NTS1R(T227) (human) [10]
  koff: 0.0138 s⁻¹
  kon: 2e+06 M⁻¹ s⁻¹
  pKd kinetic: 8.16
Nluc-NTS1R(T227) (human) [11]
  pKd: 8.32

## angiotensin II
Nluc-AT1R(S186); kinetic BRET competition binding with 3 at Nluc-AT1R(S186)
  time until pIC50 value stabilized: ≤ 45 min
AT1R
  reference values (literature): 7.61–9.62[44],[46]−[49]

## porcine neuropeptide Y [pNPY]
Y1R [12]
  pKi (flow cytometry-based competition binding): 7.58
Y1R [1]
  reference values (literature): 7.58–9.75[24],[25],[27],[30]−[32]
